Results: US11555210B2, “Microbe having increased tolerance to phenolic fermentation inhibitors” (University of Ottawa, priority 2018, dated 2023)

What was measured:
bna7Δ (YKB4649) [1] = test: serial dilution spot assay on YPD agar plates; assay type: cell-based, S. cerevisiae; details: 10 mM FA, 35 mM 4-HBA or 1 mM CA, 48 hr at 30° C.
Description: (§1) In addition, deletion mutants were generated for genes involved in the tryptophan catabolic pathway and their growth was assayed on solid media containing 10 mM ferulic acid. In particular, wild type yeast (BY4741) along with deletion mutants aro8Δ (YKB4799), bna7Δ (YKB4649), bna2Δ (YKB4798), bna6Δ (YKB4844), bna5Δ (YKB4845), bna4Δ (YKB4846) and bna1Δ (YKB4729) were grown to mid log phase ([…] 0.5-0.6) in YPD medium prior to being diluted to an OD600 of 0.1. Four 10-fold serial dilutions were spotted onto YPD agar plates either containing 10 mM ferulic acid or no ferulic acid. Plates were incubated for 48 hr at 30° C. Images of the plates were taken with the ChemiDoc XRS Molecular Imaging system (Biorad) and images are representative of three biological replicates.
Experiments were also conducted to determine if deletion of BNA7 could provide protection to 4-hydroxybenzoic acid or coniferyl aldehyde (CA). Wild type (BY4741) and bna7A (YKB4649) strains were grown to mid log phase in YPD medium prior to being diluted into fresh medium to an OD600 of 0.1. Four 10-fold serial dilutions were spotted onto YPD agar plates containing either no compound (Untreated), 10 mM ferulic acid (FA), 35 mM 4-hydroxybenzoic acid (4-HBA) or 1 mM coniferyl aldehyde (CA). Plates were incubated for 48 hr at 30° C. and images are representative of three biological replicates.

[2] = tested on: Saccharomyces cerevisiae ethanol red; details: commercial Saccharomyces cerevisiae ethanol red; Adeboye et al., 2014; cited from earlier work
wild-type yeast (BY4741) = test: ROS measurement by H2DCFDA fluorescence microscopy; assay type: cell-based, S. cerevisiae; details: 2 mM CA, 1 hour at 30° C.; for subcellular distribution of induced ROS: 10 mM FA or 50 mM 4-HBA
Description: Measurement of ROS was performed as previously described (Kennedy et al., 2016, Sci Rep. 6, 19332). Briefly cells were incubated with 10 μM 2′,7′-dichlorodihydrofluorescein diacetate (H2DCFDA; Invitrogen cat. #D399) for 15 min in the dark. […] An aliquot of 5 μL was spotted onto glass slides and covered with a cover slip prior to imaging. All images were acquired using a Leica DMI 6000 florescent microscope (Leica Microsystems GmbH, Wetzler Germany), equipped with a Sutter DG4 light source (Sutter Instruments, California, USA), Ludl emission filter wheel with Chroma band pass emission filters (Ludl Electronic Products Ltd., NY, USA) and Hamamatsu Orca AG camera (Hamamatsu Photonics, Herrsching am Ammersee, Germany). Images were acquired at 0.2 μm steps across 6 μm using a 63× oil-immersion objective with a 1.4 numerical aperture. Analysis of H2DCFDA fluorescence was performed using Velocity Software V4 (Perkin Elmer). Image J software was used to quantify the H2DCFDA fluorescence signal in cells as described by Schneider et al (Schneider et al., 2012, Nature Methods, 9, 671-675) with a slight modification. Briefly, background fluorescence was subtracted from the images and the total fluorescence of all the cells in the image was measured and divided by the number of cells in the image. The images contained a minimum of 100 cells. The ratio of fluorescence per cell of treated cultures was divided by that of untreated cultures to eliminate background endogenous ROS production.

Zwf1-GFP = Zwf1-GFP fluorescence microscopy; assay type: cell-based, S. cerevisiae; details: 2 mM CA for 120 min at 30° C. (ρ=9.69E-5); ferulic acid 10 mM
Description: For the microscopy studies, wild type cells expressing endogenously tagged Zwf1-GFP (YKB4825) were grown to mid log in YPD, prior to being washed and resuspended in YPD medium (Untreated) or YPD medium containing 2 mM coniferyl aldehyde (CA) for 120 min at 30° C. Images (FIG. 8A) are representative of three independent experiments where a minimum of 100 cells each were imaged. Scale bar represents 10 μm.

bna7Δ cells = test: ROS measurement by H2DCFDA fluorescence microscopy; assay type: cell-based, S. cerevisiae; details: 10 mM ferulic acid for 2 hr; not statistically significant (ρ=0.756)
Description: For all microscopy experiments overnight cultures of wild-type yeast grown at 30° C. were re-suspended at an OD600 of 0.1 in YPD medium and allowed to reach mid-log phase prior to imaging. Measurement of ROS was performed as previously described (Kennedy et al., 2016, Sci Rep. 6, 19332). Briefly cells were incubated with 10 μM 2′,7′-dichlorodihydrofluorescein diacetate (H2DCFDA; Invitrogen cat. #D399) for 15 min in the dark. Cells were washed in sterile PBS to remove traces of the dye after which they were re-suspended in YPD medium alone, or YPD supplemented with either 2 mM coniferyl aldehyde, […]
Analysis of H2DCFDA fluorescence was performed using Velocity Software V4 (Perkin Elmer). Image J software was used to quantify the H2DCFDA fluorescence signal in cells as described by Schneider et al (Schneider et al., 2012, Nature Methods, 9, 671-675) with a slight modification. Briefly, background fluorescence was subtracted from the images and the total fluorescence of all the cells in the image was measured and divided by the number of cells in the image. […] The ratio of fluorescence per cell of treated cultures was divided by that of untreated cultures to eliminate background endogenous ROS production. […]

[3] = tested on: mutants aro8Δ, bna2Δ, bna6Δ, bna5Δ, bna4Δ and bna1Δ; test: serial dilution spot assay on YPD agar plates; assay type: cell-based, S. cerevisiae; details: 10 mM ferulic acid, 48 hr at 30° C.
Description: as §1

bna7Δ (YKB4649) [4] = test: automated growth curve analysis in YPD liquid medium; assay type: cell-based, S. cerevisiae; details: 10 mM ferulic acid, 30° C., 72 hr
Description: The agar-based chemogenomic screen was confirmed by measuring the growth rate of the identified mutants in liquid YPD medium supplemented with the phenolic compounds. Briefly, overnight cultures of the mutant strains were inoculated into fresh YPD medium and strains were incubated at 30° C. until they reached the mid log phase ([…] 0.5-0.6), prior to being diluted to a final OD600 of 0.1 in a BioScreen CTM Honeycomb microplate. The growth assays were performed for each mutant in triplicate in YPD alone (control) or YPD medium supplemented with ferulic acid, 4-hydroxybenzoic acid or coniferyl aldehyde. Using a BioScreen CTM plate reader, the cultures were incubated at 30° C. for 72 hours and OD600 readings were taken every 15 min to plot growth curves. Data from the BioScreen CTM were analyzed with the PRECOG software (Fernandez-Ricaud et al., […], Nucleic acids research. 41, W591-6) to obtain the doubling time of all the strains. A PRECOG score for each of the strains tested was calculated as the ratio of the doubling time in the presence of the phenolic to the doubling time in the absence of these phenolic compounds. Using a cut-off PRECOG score of >2 and <0.4 strains were identified that were sensitive or tolerant, respectively, to the phenolic compounds. […]

SMILES	resistance of bna7Δ / protection by deletion of BNA7 (bna7Δ (YKB4649) [1])	concentration at which the compound kills the yeast [2] [mM]	subcellular distribution of induced ROS (wild-type yeast (BY4741))	Zwf1-GFP fluorescence signal/cell (Zwf1-GFP)	ROS signal in bna7Δ compared to wild-type (bna7Δ cells)	effect of gene deletion on ferulic acid tolerance [3]	growth (OD600) of bna7Δ relative to wild-type (bna7Δ (YKB4649) [4])	ROS formation (H2DCFDA fluorescence) (wild-type yeast (BY4741); 10 mM FA, 50 mM 4-HBA or hydrogen peroxide)
O=C(O)c1ccc(O)cc1 [4-hydroxybenzoic acid]	does not provide protection	11	distributed throughout the cell	no increase				
COc1cc(C=CC(=O)O)ccc1O [ferulic acid, 4-hydroxy-3-methoxycinnamic acid]	resistant	5	distributed throughout the cell	no increase	slight reduction of ROS	no effect	increased growth relative to the wild-type strain	
OO [hydrogen peroxide]								induced the formation of green fluorescence signal throughout the cell
